pKi: −log10 of the molar value.
Experiments:
COX-1 = target: T1, COX-1 (Ovis aries, UniProt P05979); assay: enzyme kinetics (Lineweaver-Burk), arachidonic acid substrate; assay type: biochemical; conditions: for mode of inhibition: Lineweaver-Burk plot analysis; for pKi: secondary plot of slope versus inhibitor concentration, read-out: Ki (steady-state inhibition constant)
T1 construct: purchased Biovision K548-100
T1 sequence (P05979 25-600): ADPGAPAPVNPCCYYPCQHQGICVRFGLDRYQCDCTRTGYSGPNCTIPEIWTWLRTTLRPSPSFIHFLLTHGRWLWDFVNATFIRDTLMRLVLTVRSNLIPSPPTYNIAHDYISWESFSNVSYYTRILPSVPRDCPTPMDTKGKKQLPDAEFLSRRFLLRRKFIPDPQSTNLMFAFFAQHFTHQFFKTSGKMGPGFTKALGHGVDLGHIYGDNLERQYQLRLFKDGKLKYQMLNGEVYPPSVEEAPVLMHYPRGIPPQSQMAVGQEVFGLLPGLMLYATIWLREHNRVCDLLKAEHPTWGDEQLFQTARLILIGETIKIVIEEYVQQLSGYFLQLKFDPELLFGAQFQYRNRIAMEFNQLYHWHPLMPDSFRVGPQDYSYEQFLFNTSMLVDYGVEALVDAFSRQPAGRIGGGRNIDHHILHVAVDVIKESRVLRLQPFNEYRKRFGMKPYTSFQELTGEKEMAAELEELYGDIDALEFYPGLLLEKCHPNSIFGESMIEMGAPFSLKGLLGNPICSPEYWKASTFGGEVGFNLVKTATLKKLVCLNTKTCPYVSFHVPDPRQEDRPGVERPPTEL
Method: The mode of inhibition was determined by following the Lineweaver–Burk double reciprocal plot analysis of the data and calculated as per the Michaelis–Menten kinetics. To understand the possible mode of action, Km and Vmax were also calculated. The slopes of the Lineweaver–Burk plots were plotted versus the inhibitor concentration, and the Ki values were determined from the x-axis intercept as inhibition constant − Ki. […] The kinetic parameters of this study were determined based on Michaelis–Menten equation followed by a Lineweaver–Burk double reciprocal analysis of data set regarding […] versus 1/[S] plot.

[1] = tested on: TA100 (base-pair substitutions); assay: Ames MPF mutagenicity assay, TA100; assay type: cell-based, Salmonella typhimurium; conditions: Salmonella typhimurium; each concentration, with and without S9; read-out: Fold inductions over baseline, TA 100
Method: Salmonella typhimurium strains, TA98 (frameshift mutations) and TA100 (base-pair substitutions), are used in this assay. Concentration range of the compounds was between […] and 5000 µg/mL according to the previous guidelines. Compounds were prepared in six different concentrations (5, 2.5, 1.25, 0.625, 0.3125 and 0.156 mg/mL) in DMSO. Mutagenic potential was determined in absence and presence of Aroclor™-1254 induced male Sprague–Dawley rat liver microsomal enzyme (S9) mix (Xenometrix AG, Switzerland). Positive controls without S9 mix were 2-Nitrofluorene (2 µg/mL) and 4-nitroquinoline N-oxide (0.1 µg/mL) whereas 1 and 2.5 µg/mL of 2-aminoanthracene solutions were used as positive controls with S9 against TA 98 and TA100, respectively. Solvent control was prepared with 4% DMSO. At the end of the experiment, revertant bacteria dropped the pH of solution and indicator medium color was changed to yellow. Yellow wells were counted as positive and compared with the negative control. Fold induction over the negative control and fold induction over the baseline were calculated. Fold induction over the negative control is the ratio of the mean number of positive wells for the dose concentration divided by the mean number of positive wells for the zero dose (negative) control. Fold induction over the baseline is the ratio of the mean number of positive wells for the dose concentration divided by zero dose baseline. The zero dose baseline is obtained by adding one standard deviation to the mean number of positive wells of the zero dose control. Mutagenicity was determined according to the criteria from previous studies[52]^,[56]. For a value ≤3 and significant increases between two and three-fold the baselines were classified as a weak mutagen, and increases ≥ three-fold the baselines were classified as a mutagen. […] As a rule, at least two adjacent doses with significant increases or a significant increase at the highest dose level should be observed for a mutagenic compound. All doses were compared according to Student’s t-test at p < .05 for statistical significance.
Ames assay was performed to investigate the genotoxicity of compounds 6h and 6l.

SMILES | Vmax value of the competitive inhibition (COX-1) | mode of inhibition (COX-1) | pKi (COX-1) | fold induction [1]
COc1ccc2sc(SCc3ccc(C(C)C(=O)O)cc3)nc2c1 (stereo not shown) [Compound 6h, 2-(4-(((5-Methoxybenzo[d]thiazol-2-yl)thio)methyl)phenyl)propanoic acid] | 0.830 ± 0.011 nmol/min/mg protein | competitive | 5.68 | –
COc1ccc2[nH]c(SCc3ccc(C(C)C(=O)O)cc3)nc2c1 (stereo not shown) [Compound 6l, 2-(4-(((5-Methoxy-1H-benzo[d]imidazol-2-yl)thio)methyl)phenyl)propanoic acid] | 0.669 ± 0.003 nmol/min/mg protein | competitive | 5.77 | < 1.5

From publication PMC6445163, “Design, synthesis, and evaluation of novel 2-phenylpropionic acid derivatives as dual COX inhibitory-antibacterial agents” (Journal of Enzyme Inhibition and Medicinal Chemistry, 2017)
